This series has as its target ATP-dependent translocase ABCB1 (Homo sapiens, UniProt P08183). Kind of series: TP_TRANSPORTER: increase in Vincristine intracellular accumulation (0.025 uM) in K562/ADM cells. The class given is functional, cell-based. As to conditions: k562/adr.
Sequence of ATP-dependent translocase ABCB1 (P08183 whole entry): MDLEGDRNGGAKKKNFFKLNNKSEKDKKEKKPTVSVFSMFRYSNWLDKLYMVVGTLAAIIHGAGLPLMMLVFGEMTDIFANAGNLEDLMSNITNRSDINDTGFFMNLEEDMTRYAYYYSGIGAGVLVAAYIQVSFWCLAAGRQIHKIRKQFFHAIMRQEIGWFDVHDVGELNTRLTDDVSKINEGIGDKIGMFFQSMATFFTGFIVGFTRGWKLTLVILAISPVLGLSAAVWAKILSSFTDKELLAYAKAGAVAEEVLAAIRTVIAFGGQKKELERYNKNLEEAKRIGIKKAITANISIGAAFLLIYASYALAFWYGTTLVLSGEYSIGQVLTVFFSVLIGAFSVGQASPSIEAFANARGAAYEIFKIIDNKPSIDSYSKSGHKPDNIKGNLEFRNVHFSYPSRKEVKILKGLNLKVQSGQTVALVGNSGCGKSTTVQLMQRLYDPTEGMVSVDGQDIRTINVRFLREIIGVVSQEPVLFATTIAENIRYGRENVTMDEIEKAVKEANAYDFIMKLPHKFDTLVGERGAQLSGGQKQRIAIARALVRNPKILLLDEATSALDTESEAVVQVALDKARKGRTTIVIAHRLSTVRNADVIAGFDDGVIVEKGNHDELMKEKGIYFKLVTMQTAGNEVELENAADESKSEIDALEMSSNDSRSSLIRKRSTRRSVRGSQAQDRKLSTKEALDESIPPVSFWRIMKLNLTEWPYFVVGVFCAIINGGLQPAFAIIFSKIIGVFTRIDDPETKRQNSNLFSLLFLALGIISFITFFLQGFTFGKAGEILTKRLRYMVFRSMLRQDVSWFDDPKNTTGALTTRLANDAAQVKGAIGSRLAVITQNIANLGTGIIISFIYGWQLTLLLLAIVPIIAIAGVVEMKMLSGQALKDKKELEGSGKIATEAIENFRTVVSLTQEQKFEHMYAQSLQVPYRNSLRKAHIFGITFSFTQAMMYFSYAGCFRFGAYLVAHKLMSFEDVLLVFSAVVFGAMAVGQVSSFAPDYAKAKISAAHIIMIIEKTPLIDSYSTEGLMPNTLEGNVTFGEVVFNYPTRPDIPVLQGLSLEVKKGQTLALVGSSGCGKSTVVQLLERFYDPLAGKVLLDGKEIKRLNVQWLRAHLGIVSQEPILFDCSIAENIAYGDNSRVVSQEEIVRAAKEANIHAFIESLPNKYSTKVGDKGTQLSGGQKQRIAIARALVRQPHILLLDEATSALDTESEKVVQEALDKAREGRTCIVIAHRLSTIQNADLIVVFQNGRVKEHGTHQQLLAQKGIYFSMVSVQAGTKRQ
Regarding `COc1ccc(-c2oc3cc(OC)cc(O)c3c(=O)c2OC)c(OC)c1` [MORIN PENTAMETHYL ETHER], the Activity entry was “inhibitor [(at a rough estimate) 470 % of control]”.

Take `CCOc1ccc(-c2oc3cc(OCC)cc(O)c3c(=O)c2OCC)c(OCC)c1` [MORIN PENTAETHYL ETHER]: the Activity result was “inhibitor [(at a rough estimate) 1430 % of control]”.

Take `C=CCOc1ccc(-c2oc3cc(OCC=C)cc(O)c3c(=O)c2OCC=C)c(OCC=C)c1` [MORIN PENTAALLYL ETHER]: the Activity entry is “inhibitor [(at a rough estimate) 500 % of control]”.

In the case of `CCCOc1ccc(-c2oc3cc(OCCC)cc(O)c3c(=O)c2OCCC)c(OCCC)c1` [MORIN PENTAPROPYL ETHER], the Activity result was “inhibitor [(at a rough estimate) 390 % of control]”.
